Reference: US20230102554A1 (GB002, INC., priority 2019, published 2023)

Assays:
[1] = target: T1, Human PDGFRβ, cytoplasmic domain (GST-PDGFRβ) (Homo sapiens, UniProt P09619); experiment: Human PDGFRβ biochemical inhibition assay (off-chip Mobility Shift Assay)
T1 construct: made in house
Procedure, shortened: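 GST-tagged cytoplasmic domain (aa 557-1106) from baculovirus was incubated 1 h at room temperature with compound, CSKtide, ATP at Km and Mg²⁺ in HEPES buffer, pH 7.5. Phosphorylated and unphosphorylated peptide were separated by off-chip mobility shift, and the product ratio P/(P+S) gave percent inhibition.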

[2] = target: T2, Human PDGFRα, cytoplasmic domain (GST-PDGFRα) (Homo sapiens, UniProt P16234); experiment: Human PDGFRα biochemical inhibition assay (off-chip Mobility Shift Assay)
T2 construct: made in house
T2 sequence (P16234 550-1089 T674I): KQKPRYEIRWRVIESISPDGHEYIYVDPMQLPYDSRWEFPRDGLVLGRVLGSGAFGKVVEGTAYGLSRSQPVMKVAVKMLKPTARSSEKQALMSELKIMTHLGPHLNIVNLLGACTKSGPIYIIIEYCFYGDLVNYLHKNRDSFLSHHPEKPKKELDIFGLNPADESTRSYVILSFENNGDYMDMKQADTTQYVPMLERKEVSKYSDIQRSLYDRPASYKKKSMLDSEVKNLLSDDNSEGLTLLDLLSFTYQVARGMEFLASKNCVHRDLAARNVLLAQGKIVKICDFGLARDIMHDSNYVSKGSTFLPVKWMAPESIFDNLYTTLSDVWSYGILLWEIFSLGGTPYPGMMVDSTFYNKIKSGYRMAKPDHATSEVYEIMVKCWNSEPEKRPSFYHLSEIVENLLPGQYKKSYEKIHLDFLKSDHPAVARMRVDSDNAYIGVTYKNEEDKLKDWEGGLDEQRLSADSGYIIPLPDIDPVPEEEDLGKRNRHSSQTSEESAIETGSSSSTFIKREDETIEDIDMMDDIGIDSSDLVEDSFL

T1 sequence (P09619 with tags, fused parts or gaps): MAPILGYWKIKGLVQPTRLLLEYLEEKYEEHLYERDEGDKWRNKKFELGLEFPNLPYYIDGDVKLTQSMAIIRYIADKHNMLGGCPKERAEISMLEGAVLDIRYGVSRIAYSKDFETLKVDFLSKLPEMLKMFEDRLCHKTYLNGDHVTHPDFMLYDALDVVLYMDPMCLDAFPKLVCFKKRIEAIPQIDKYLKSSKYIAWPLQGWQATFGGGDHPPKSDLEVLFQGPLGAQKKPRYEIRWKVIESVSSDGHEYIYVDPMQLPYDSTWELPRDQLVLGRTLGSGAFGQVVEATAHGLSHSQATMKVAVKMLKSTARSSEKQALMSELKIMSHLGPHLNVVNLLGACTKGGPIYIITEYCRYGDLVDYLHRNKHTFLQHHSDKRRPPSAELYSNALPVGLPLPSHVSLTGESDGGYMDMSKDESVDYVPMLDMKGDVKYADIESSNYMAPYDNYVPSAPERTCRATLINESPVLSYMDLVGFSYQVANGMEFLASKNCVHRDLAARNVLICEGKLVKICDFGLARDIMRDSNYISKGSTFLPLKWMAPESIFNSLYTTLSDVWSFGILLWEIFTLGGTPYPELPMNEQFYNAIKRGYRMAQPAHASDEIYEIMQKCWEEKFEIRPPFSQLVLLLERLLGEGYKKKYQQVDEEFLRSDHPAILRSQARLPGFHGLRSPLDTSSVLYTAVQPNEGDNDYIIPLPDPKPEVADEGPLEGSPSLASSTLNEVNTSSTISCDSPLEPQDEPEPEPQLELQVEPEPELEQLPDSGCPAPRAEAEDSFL

IC50 [1] [nM] | IC50 [2] [nM] | Compound
< 300 | < 300 | CCn1ncc2ncc(N[C@@H](C)c3cccc(NC(=O)c4cncc(C)c4)c3)nc21 [Compound 176, (S)-N-(3-(1-((1-ethyl-1H-pyrazolo[3,4-b]pyrazin-6-yl)amino)ethyl)phenyl)-5-methylnicotinamide]
< 300 | < 300 | Cc1cncc(C(=O)Nc2cccc([C@H](C)Nc3cnc4cnn(C5CC5)c4n3)c2)c1 [Compound 177, (S)-N-(3-(1-((1-cyclopropyl-1H-pyrazolo[3,4-b]pyrazin-6-yl)amino)ethyl)phenyl)-5-methylnicotinamide]
< 300 | < 300 | Cc1cncc(C(=O)Nc2cccc([C@H](C)Nc3cnc4cnn(C5CCC5)c4n3)c2)c1 [Compound 178, (S)-N-(3-(1-((1-cyclobutyl-1H-pyrazolo[3,4-b]pyrazin-6-yl)amino)ethyl)phenyl)-5-methylnicotinamide]
≥ 1000 | 300 to 1000 | Cc1cncc(C(=O)Nc2cccc([C@H](C)Nc3cnc4cnn(C5COC5)c4n3)c2)c1 [Compound 179, (S)-5-methyl-N-(3-(1-((1-(oxetan-3-yl)-1H-pyrazolo[3,4-b]pyrazin-6-yl)amino)ethyl)phenyl)nicotinamide]
≥ 1000 | 300 to 1000 | Cc1cncc(C(=O)Nc2cccc([C@H](C)Nc3cnc4cnn(C5CCOCC5)c4n3)c2)c1 [Compound 180, (S)-5-methyl-N-(3-(1-((1-(tetrahydro-2H-pyran-4-yl)-1H-pyrazolo[3,4-b]pyrazin-6-yl)amino)ethyl)phenyl) nicotinamide]
< 300 | < 300 | Cc1cncc(C(=O)Nc2cccc([C@H](C)Nc3cnc4cnn(CC5CC5)c4n3)c2)c1 [Compound 181, (S)-N-(3-(1-((1-(cyclopropylmethyl)-1H-pyrazolo[3,4-b]pyrazin-6-yl)amino)ethyl)phenyl)-5-methylnicotinamide]
≥ 1000 | < 300 | Cc1cncc(C(=O)Nc2cccc([C@H](C)Nc3cnc4cnn(C5CCOC5)c4n3)c2)c1 (stereo partly drawn) [Compound 182, 5-methyl-N-(3-((1S)-1-((1-(tetrahydrofuran-3-yl)-1H-pyrazolo[3,4-b]pyrazin-6-yl)amino)ethyl)phenyl) nicotinamide]
300 to 1000 | < 300 | Cc1cncc(C(=O)Nc2cccc([C@H](C)Nc3cnc4cnn(CC(F)F)c4n3)c2)c1 [Compound 183, (S)-N-(3-(1-((1-(2,2-difluoroethyl)-1H-pyrazolo[3,4-b]pyrazin-6-yl)amino)ethyl)phenyl)-5-methylnicotinamide]
< 300 | < 300 | [2H]C([2H])([2H])n1ncc2ncc(N[C@@H](C)c3cccc(NC(=O)c4cncc(C)c4)c3)nc21 [Compound 184, (S)-5-methyl-N-(3-(1-((1-(methyl-d3)-1H-pyrazolo[3,4-b]pyrazin-6-yl)amino)ethyl)phenyl)nicotinamide]
< 300 | < 300 | COc1ccc(-n2ncc3ncc(N[C@@H](C)c4cccc(NC(=O)c5cncc(C)c5)c4)nc32)cc1OC [Compound 185, (S)-N-(3-(1-((1-(3,4-dimethoxyphenyl)-1H-pyrazolo[3,4-b]pyrazin-6-yl)amino)ethyl)phenyl)-5-methylnicotinamide]
< 300 | < 300 | Cc1cncc(C(=O)Nc2cccc([C@H](C)Nc3cnc4cnn(-c5cnn(C)c5)c4n3)c2)c1 [Compound 186, (S)-5-methyl-N-(3-(1-((1-(1-methyl-1H-pyrazol-4-yl)-1H-pyrazolo[3,4-b]pyrazin-6-yl)amino)ethyl)phenyl) nicotinamide]
< 300 | < 300 | COc1ncc(C(=O)Nc2cccc([C@H](C)Nc3cnc4cnn(C)c4n3)c2)cc1Cl [Compound 187, (S)-5-chloro-6-methoxy-N-(3-(1-((1-methyl-1H-pyrazolo[3,4-b]pyrazin-6-yl)amino)ethyl)phenyl)nicotinamide]
< 300 | < 300 | Cc1ccc(C(=O)Nc2cccc([C@H](C)Nc3cnc4cnn(C)c4n3)c2)cc1F [Compound 188, (S)-3-fluoro-4-methyl-N-(3-(1-((1-methyl-1H-pyrazolo[3,4-b]pyrazin-6-yl)amino)ethyl)phenyl)benzamide]
< 300 | < 300 | COc1ccc(C(=O)Nc2cccc([C@H](C)Nc3cnc4cnn(C)c4n3)c2)cc1F [Compound 189, (S)-3-fluoro-4-methoxy-N-(3-(1-((1-methyl-1H-pyrazolo[3,4-b]pyrazin-6-yl)amino)ethyl)phenyl)benzamide]
< 300 | < 300 | Cc1cc(C(=O)Nc2cccc([C@H](C)Nc3cnc4cnn(C)c4n3)c2)cnc1C(F)F [Compound 190, (S)-6-(difluoromethyl)-5-methyl-N-(3-(1-((1-methyl-1H-pyrazolo[3,4-b]pyrazin-6-yl)amino)ethyl)phenyl) nicotinamide]
< 300 | < 300 | C[C@H](Nc1cnc2cnn(C)c2n1)c1cccc(NC(=O)c2ccc(Cl)c(F)c2)c1 [Compound 191, (S)-4-chloro-3-fluoro-N-(3-(1-((1-methyl-1H-pyrazolo[3,4-b]pyrazin-6-yl)amino)ethyl)phenyl)benzamide]
< 300 | < 300 | Cc1cc(C(=O)Nc2cccc([C@H](C)Nc3cnc4cnn(C)c4n3)c2)cnc1F [Compound 192, (S)-6-fluoro-5-methyl-N-(3-(1-((1-methyl-1H-pyrazolo[3,4-b]pyrazin-6-yl)amino)ethyl)phenyl)nicotinamide]
< 300 | < 300 | Cc1cc(C(=O)Nc2cccc([C@H](C)Nc3cnc4cnn(C)c4n3)c2)ccc1C#N [Compound 193, (S)-4-cyano-3-methyl-N-(3-(1-((1-methyl-1H-pyrazolo[3,4-b]pyrazin-6-yl)amino)ethyl)phenyl)benzamide]
< 300 | < 300 | CCNc1ncc(C(=O)Nc2cccc([C@H](C)Nc3cnc4cnn(C)c4n3)c2)cc1C [Compound 194, (S)-6-(ethylamino)-5-methyl-N-(3-(1-((1-methyl-1H-pyrazolo[3,4-b]pyrazin-6-yl)amino)ethyl)phenyl) nicotinamide]
< 300 | < 300 | Cc1cc(C(=O)Nc2cccc([C@H](C)Nc3cnc4cnn(C)c4n3)c2)cnc1N1CCN(C)CC1 [Compound 195, (S)-5-methyl-N-(3-(1-((1-methyl-1H-pyrazolo[3,4-b]pyrazin-6-yl)amino)ethyl)phenyl)-6-(4-methylpiperazin-1-yl)nicotinamide]
< 300 | < 300 | CCOc1ccc(C(=O)Nc2cccc([C@H](C)Nc3cnc4cnn(C)c4n3)c2)cc1C [Compound 196, (S)-4-ethoxy-3-methyl-N-(3-(1-((1-methyl-1H-pyrazolo[3,4-b]pyrazin-6-yl)amino)ethyl)phenyl)benzamide]
< 300 | < 300 | COC(=O)c1ccc(C(=O)Nc2cccc([C@H](C)Nc3cnc4cnn(C)c4n3)c2)cc1Br [Compound 197, methyl (S)-2-bromo-4-((3-(1-((1-methyl-1H-pyrazolo[3,4-b]pyrazin-6-yl)amino)ethyl)phenyl)carbamoyl)benzoate]
< 300 | < 300 | Cc1cc(C(=O)Nc2cccc([C@H](C)Nc3cnc4cnn(C)c4n3)c2)cnc1NC(C)C [Compound 198, (S)-6-(isopropylamino)-5-methyl-N-(3-(1-((1-methyl-1H-pyrazolo[3,4-b]pyrazin-6-yl)amino)ethyl)phenyl) nicotinamide]
